Assay results published in patent US20080171737A1 (Wyeth, priority 2006, published 2008).
Structures can show the parent of a compound that is named as a salt.

Molecular target: T1, human hNET (Homo sapiens, UniProt P23975)
T1 construct: expressed in transfected cells; host or cells: MDCK-Net6 (MDCK cells stably transfected with hNET)
Assay: Functional norepinephrine reuptake assay, Procedure B (6,000 cells/well)
Format: cell-based
Details: not given
Procedure: For screening, 25 μl aliquots of compound solution at a 1 μM or 10 μM final concentration was delivered directly to cells.
For IC50 determinations, stock compounds were prepared at 10 mM from powder. The stock solution was diluted according to compound testing range. […] On the day of assay, 25 μl of compound solution at the specified concentrations were added to the plates containing cells. A DMSO stock of desipramine was prepared at 10 mM in DMSO and diluted for a final concentration of 20 μM to determine the non-specific reuptake.
MDCK-Net6 cells, stably transfected with human hNET (Pacholczyk, 1991), were maintained in growth media [high glucose DMEM (Gibco Cat. 11995), 10% FBS (dialyzed, heat-inactivated, Sigma, dialysed, heat inactivated, Lot# K0922 or equivalent) 1xPen/Strep, and 500 μg/ml G418 (Gibco Cat. 10131)]. Cells were plated at 300,000/T75 flask and cells split twice weekly.
Cells were plated at 50,000 cells/well (Procedure A) or 6,000 cells/well (Procedure B) on day 1 in BD Falcon Microtest 96-well sterile cell culture plates, Optilux White/Clear Bottom TC plate (VWR; # 62406-466 or equivalent) in growth media and maintained in a cell incubator (37° C., 5% CO2). On Day 2, cells were removed from the cell incubator and the growth media is replaced by 200 μl of assay buffer (25 mm HEPES 120 mM NaCL; 5 mM KCl; 2.5 mM CaCl2; 1.2 mM MgSO4; 2 mg/ml glucose (pH 7.4, 37° C.)) containing 0.2 mg/ml ascorbic acid and 1 μM parglyine. For screening, 25 μl of compound in 4% DMSO was added directly to each well and the plate was incubated for 5 minutes (37° C.). […] The reaction is aspirated from the plate and the cells washed with 250 μl of 50 mM Tris Buffer (4° C.). The plates were left to dry for 1 hour. The cells were lysed using 0.25 M NaOH solution then placed on a shake table and vigorously shaken for 10 minutes. After cell lysis, 100 μl of Microscint 20 (PerkinElmer; #87-051101) was added to the plates and the plates were sealed with film tape and replaced on the shake table for a minimum of 10 minutes. The plates were counted in a TopCount counter (PerkinElmer).
% inhibition=[1−((mean cpm test compound wells−mean cpm non-specific wells)/(mean cpm control wells−mean cpm non-specific wells))]×100
For IC50 determination, raw cpm values were generated in a data file from the TopCount counter. The data was organized using the Microsoft Excel and transferred into PRIZM graphing and statistical program, which calculated the estimated IC50 value. Calculation of IC50 values was made using non-linear regression analysis with a sigmoidal dose response with variable slope. The statistical program used wells containing ^3H norepinephrine only as the maximal NE reuptake determinant and wells containing ^3H norepinephrine plus 20 μM desipramine (AHR-9543) as the minimal NE reuptake determinant (non-specific determinant). Estimation of the IC50 value was completed on a log scale and the line was fit between the maximal and minimal NE reuptake values.

T1 sequence (P23975 whole entry): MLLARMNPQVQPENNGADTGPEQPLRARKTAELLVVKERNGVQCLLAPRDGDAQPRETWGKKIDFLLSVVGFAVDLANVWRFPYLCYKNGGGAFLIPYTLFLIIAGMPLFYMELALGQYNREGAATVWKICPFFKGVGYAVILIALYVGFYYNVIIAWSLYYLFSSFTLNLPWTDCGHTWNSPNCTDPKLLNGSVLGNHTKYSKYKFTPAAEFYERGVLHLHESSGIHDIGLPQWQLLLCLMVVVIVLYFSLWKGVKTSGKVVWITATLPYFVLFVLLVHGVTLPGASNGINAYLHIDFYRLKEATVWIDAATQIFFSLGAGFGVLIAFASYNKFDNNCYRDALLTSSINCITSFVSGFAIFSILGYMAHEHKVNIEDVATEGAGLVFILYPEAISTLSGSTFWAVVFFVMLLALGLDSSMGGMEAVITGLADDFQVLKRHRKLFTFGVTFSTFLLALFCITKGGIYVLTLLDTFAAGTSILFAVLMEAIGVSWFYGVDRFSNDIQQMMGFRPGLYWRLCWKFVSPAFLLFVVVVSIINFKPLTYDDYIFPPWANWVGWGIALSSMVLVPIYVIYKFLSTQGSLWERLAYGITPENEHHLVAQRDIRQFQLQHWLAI

Compound	IC50 [nM]
CNCCC[C@H]1Cc2cc(F)ccc2N(c2ccccc2F)S1(=O)=O (single isomer, unassigned) [Example 109]	93

Same assay, conditions: MDCK-Net6 cells, 6,000 cells/well, 16 nM 3H-norepinephrine; read-out: Procedure B hNET uptake IC50

Compound	IC50 [nM]
CNCCCC1Cc2ccccc2N(c2ccc(F)cc2F)S1(=O)=O (racemic) [Example 99, 3-[1-(2,4-difluorophenyl)-2,2-dioxido-3,4-dihydro-1H-2,1-benzothiazin-3-yl]-N-methylpropan-1-amine]	62
CNCCCC1Cc2cc(F)ccc2N(c2ccc(F)cc2F)S1(=O)=O (racemic) [Example 111, 3-[1-(2,4-difluorophenyl)-6-fluoro-2,2-dioxido-3,4-dihydro-1H-2,1-benzothiazin-3-yl]-N-methylpropan-1-amine]	92
CNCCCC1Cc2ccccc2N(c2c(F)cccc2F)S1(=O)=O (racemic) [Example 120, 3-[1-(2,6-difluorophenyl)-2,2-dioxido-3,4-dihydro-1H-2,1-benzothiazin-3-yl]-N-methylpropan-1-amine]	10
CNCCCC1Cc2ccccc2N(c2cccnc2)S1(=O)=O (racemic) [Example 123, 3-(2,2-dioxido-1-pyridin-3-yl-3,4-dihydro-1H-2,1-benzothiazin-3-yl)-N-methylpropan-1-amine]	256
CNCCCC1Cc2ccccc2N(c2ccccn2)S1(=O)=O (racemic) [Example 126, 3-(2,2-dioxido-1-pyridin-2-yl-3,4-dihydro-1H-2,1-benzothiazin-3-yl)-N-methylpropan-1-amine]	98
CNCCCC1Cc2cc(F)ccc2N(c2cccc(F)c2F)S1(=O)=O (racemic) [Example 145, 3-[1-(2,3-difluorophenyl)-6-fluoro-2,2-dioxido-3,4-dihydro-1H-2,1-benzothiazin-3-yl]-N-methylpropan-1-amine]	74
CNCCCC1Cc2cc(F)ccc2N(c2ccc(C)cc2F)S1(=O)=O (racemic) [Example 148, 3-[6-fluoro-1-(2-fluoro-4-methylphenyl)-2,2-dioxido-3,4-dihydro-1H-2,1-benzothiazin-3-yl]-N-methylpropan-1-amine]	51
CNCCCC1Cc2cc(F)ccc2N(c2cc(F)ccc2F)S1(=O)=O (racemic) [Example 151, 3-[1-(2,5-difluorophenyl)-6-fluoro-2,2-dioxido-3,4-dihydro-1H-2,1-benzothiazin-3-yl]-N-methylpropan-1-amine]	31
CNCCCC1Cc2cc(F)ccc2N(c2c(F)cccc2F)S1(=O)=O (racemic) [Example 154, 3-[1-(2,6-difluorophenyl)-6-fluoro-2,2-dioxido-3,4-dihydro-1H-2,1-benzothiazin-3-yl]-N-methylpropan-1-amine]	31
CNCCCC1Cc2cc(F)ccc2N(c2ccccc2Cl)S1(=O)=O (racemic) [Example 157, 3-[1-(2-chlorophenyl)-6-fluoro-2,2-dioxido-3,4-dihydro-1H-2,1-benzothiazin-3-yl]-N-methylpropan-1-amine]	128
CNCCCC1Cc2cc(F)ccc2N(c2ccccc2C)S1(=O)=O (racemic) [Example 160, 3-[6-fluoro-1-(2-methylphenyl)-2,2-dioxido-3,4-dihydro-1H-2,1-benzothiazin-3-yl]-N-methylpropan-1-amine]	142
CNCCCC1Cc2cc(F)ccc2N(c2ccccc2C#N)S1(=O)=O (racemic) [Example 163, 2-{6-fluoro-3-[3-(methylamino)propyl]-2,2-dioxido-3,4-dihydro-1H-2,1-benzothiazin-1-yl}benzonitrile]	189
CNCCCC1Cc2cc(F)ccc2N(c2ccccc2OC)S1(=O)=O (racemic) [Example 166, 3-[6-fluoro-1-(2-methoxyphenyl)-2,2-dioxido-3,4-dihydro-1H-2,1-benzothiazin-3-yl]-N-methylpropan-1-amine]	304
CNCCCC1Cc2cc(F)ccc2N(c2ccc(F)cc2C)S1(=O)=O (racemic) [Example 169, 3-[6-fluoro-1-(4-fluoro-2-methylphenyl)-2,2-dioxido-3,4-dihydro-1H-2,1-benzothiazin-3-yl]-N-methylpropan-1-amine]	96
CNCCC[C@H]1Cc2ccccc2N(c2ccccc2)S1(=O)=O (single isomer, unassigned) [Example 10]	96
CNCCC[C@@H]1Cc2ccccc2N(c2ccccc2)S1(=O)=O (single isomer, unassigned) [Example 11]	17.9
CNCCC[C@H]1Oc2ccccc2N(c2ccccc2)S1(=O)=O (single isomer, unassigned) [Example 13]	38.7

Compound	IC50 [nM]
CNCCC[C@@H]1Oc2ccccc2N(c2ccccc2)S1(=O)=O (single isomer, unassigned) [Example 14]	23.9
CNCCC[C@H]1Oc2cc3ccccc3cc2N(c2ccccc2)S1(=O)=O (single isomer, unassigned) [Example 71, Hydrochloride]	69.4
CNCCC[C@@H]1Oc2cc3ccccc3cc2N(c2ccccc2)S1(=O)=O (single isomer, unassigned) [Example 72, Hydrochloride]	115
CNCCC[C@H]1Cc2ccccc2N(c2ccccc2F)S1(=O)=O (single isomer, unassigned) [Example 74, Hydrochloride]	58.5
CNCCC[C@@H]1Cc2ccccc2N(c2ccccc2F)S1(=O)=O (single isomer, unassigned) [Example 75]	3.7
CNCCC[C@H]1Cc2ccccc2N(c2ccccc2F)S1(=O)=O (single isomer, unassigned) [Example 90]	59
CNCCC[C@@H]1Cc2ccccc2N(c2ccccc2F)S1(=O)=O (single isomer, unassigned) [Example 91]	4
CNCCC[C@@H]1Oc2ccccc2N(c2ccccc2F)S1(=O)=O (single isomer, unassigned) [Example 94]	22
CNC[C@@H](O)C[C@H]1Oc2ccccc2N(c2ccccc2)S1(=O)=O (single isomer, unassigned) [Example 98]	77
CNCCC[C@H]1Cc2ccccc2N(c2ccc(F)cc2F)S1(=O)=O (single isomer, unassigned) [Example 100]	343
CNCCC[C@@H]1Cc2ccccc2N(c2ccc(F)cc2F)S1(=O)=O (single isomer, unassigned) [Example 101]	49
NCC[C@H]1Oc2ccccc2N(c2ccccc2)S1(=O)=O (single isomer, unassigned) [Example 102]	1270
NCC[C@@H]1Oc2ccccc2N(c2ccccc2)S1(=O)=O (single isomer, unassigned) [Example 103]	3320
CNCC[C@H]1Oc2ccccc2N(c2ccccc2)S1(=O)=O (single isomer, unassigned) [Example 104]	302
CNCC[C@@H]1Oc2ccccc2N(c2ccccc2)S1(=O)=O (single isomer, unassigned) [Example 105]	1220
CNCCC[C@H]1Oc2cc(F)ccc2N(c2ccccc2)S1(=O)=O (single isomer, unassigned) [Example 106]	97
CNCCC[C@@H]1Oc2cc(F)ccc2N(c2ccccc2)S1(=O)=O (single isomer, unassigned) [Example 107]	74

Same assay, conditions: MDCK-Net6 cells, 6,000 cells/well; Conc 6000 nM (6 μM); read-out: Procedure B hNET uptake (% inhibition)

Compound	inhibition at 6 µM [%]
CNCCCC1Cc2ccccc2N(c2ccncc2)S1(=O)=O (racemic) [Example 133, 3-(2,2-dioxido-1-pyridin-4-yl-3,4-dihydro-1H-2,1-benzothiazin-3-yl)-N-methylpropan-1-amine]	35
